The values that follow come from patent publication US11655247B2, “Nanoluc suicide substrates” (PROMEGA CORPORATION, priority 2018, dated 2023).

For the experiment, the system named is NanoLuc-HaloTag. In words: Direct and two-step labeling with azide-DBCO pair, fluorescence imaging on SDS/PAGE gel. The format is biochemical. As to conditions: 50 uM compound 1 hour, then 100 uM DBCO-FAM 4 hours. The procedure: In Example 26, a dye-appended suicide substrate is shown by fluorescence imaging to label NanoLuc. In this example, a suicide substrate with an appended azide is shown to label a NanoLuc-HaloTag protein in a two-step procedure in which the second step is copper-free click chemistry with a DBCO appended FAM dye. […] Structures of the compounds used in this example are illustrated in FIG. 10A.
0.5 uM NanoLuc-HaloTag in 100 mM Tris pH 8.0 was incubated for 1 hour with 50 uM of: Tube 1—JRW-1505; Tube 2—FAM-HaloTag ligand; Tube 3—JRW-0926; Tube 4—JRW-0975; Tube 5—JRW-1022; and Tube 6—SE-azide. In the second step, 100 uM DBCO-FAM was incubated for 4 hours in Tubes 1, 4, 5, and 6, followed by SDS/PAGE gel for all samples (FIG. 10B). The fluorescence (473ex) (Cy2 filter set) of bands corresponding to the size of NanoLuc-HaloTag was read and quantified.
In a second experiment, 1.5 uM NanoLuc-HaloTag in 100 mM Tris (or DPBS buffer) pH 8.0 was incubated with 50 uM of JRW-0975, FAM-HaloTag ligand, JRW-0926, JRW-1022, or SE-azide for 1 hour. In the second step, 100 uM DBCO-FAM was incubated for 4 hours with tubes 3, 4, and 5, followed by SDS/PAGE gel (FIG. 11A). The fluorescence (473ex) (Cy2 filter set) of bands corresponding to the size of NanoLuc-HaloTag was read and quantified (FIG. 11B).

For `[N-]=[N+]=NCCOCCOCCC(=O)NCCOCCOCCCCCCCl` [JRW-1505, 3-(2-(2-azidoethoxy)ethoxy)-N-(2-(2-((6-chlorohexyl)oxy)ethoxy)ethyl)propanamide], the “Two-step labeling with DBCO-FAM” value is on record as “two-step labeling occurs”.
